Reference: PubChem BioAssay (NCI)
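Protocol summary: plate cells (96-well), add compound at 5 concentrations, incubate 48 h, interpolate endpoints linearly. GI50 = concentration required for 50% inhibition of growth. At the TGI there is no net growth.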

How the values were obtained:
Test in all cases: inhibition of tumour cell growth, NCI panel, 48 h
CAKI-1 renal = tested on: CAKI-1 renal
K-562 leukemia = tested on: K-562 leukemia
OVCAR-8 ovarian = tested on: OVCAR-8 ovarian
MALME-3M melanoma = tested on: MALME-3M melanoma
SNB-19 CNS = tested on: SNB-19 CNS
SF-268 CNS = tested on: SF-268 CNS
SN12C renal = tested on: SN12C renal
MCF7 breast = tested on: MCF7 breast
MOLT-4 leukemia = tested on: MOLT-4 leukemia
M14 melanoma = tested on: M14 melanoma

Row | SMILES | TGI (CAKI-1 renal) [µM] | TGI (K-562 leukemia) [µM] | TGI (OVCAR-8 ovarian) [µM] | TGI (MALME-3M melanoma) [µM] | TGI (SNB-19 CNS) [µM] | TGI (SF-268 CNS) [µM] | TGI (SN12C renal) [µM] | TGI (MCF7 breast) [µM] | TGI (MOLT-4 leukemia) [µM] | TGI (M14 melanoma) [µM] | GI50 (M14 melanoma) [µM]
1 | COC(=O)c1cc(C)ccc1CC(Cc1ccc(C)cc1)C(=O)OC (stereo unspecified) | > 100 | > 38.7 | > 100 | 95.5 | > 100 | > 35.3 | > 100 | > 31.6 | > 49.5 | > 100 | –
2 | COc1ccc(N=Nc2c3c(c(O)c4ccccc24)CCC(C)(C)O3)cc1 | 72.3 | > 100 | > 100 | 40.6 | 50.4 | 31.5 | 38.7 | 29.5 | > 100 | 39.3 | –
3 | O=C1CCCc2cc3c(cc21)CC1(C3)Cc2ccc3c(c2C1)C(=O)CCC3 (stereo unspecified) | > 100 | > 100 | > 100 | 43.6 | > 100 | > 100 | > 100 | 42.8 | 22.7 | 36.3 | –
4 | Cc1c2ccncc2c(C)c2c1[nH]c1ccccc12 | 3.81 | 5.09 | 2.32 | 4.92 | 2.09 | 3.38 | 4.63 | 2.54 | 1.75 | 2.33 | 0.979
5 | COc1c(O)c(O)cc2c1-c1ccc(OC)c(=O)cc1C(NC(C)=O)CC2 (stereo unspecified) | 95.6 | 19.2 | 62.2 | > 100 | > 100 | > 95.2 | 42.5 | 11.9 | 43.6 | > 79 | –
6 | CCOC(=O)C1CN(C2CC2)CCC1=O (stereo unspecified) | > 100 | > 100 | > 100 | > 100 | > 100 | > 100 | > 100 | > 100 | > 100 | > 100 | –
7 | COC(=O)[C@H](Cc1ccccc1)NC(=O)c1ccc(CNC(=O)/C=C/c2cccc(Oc3ccccc3)c2)cc1 | 58.1 | > 100 | > 100 | 30.4 | > 100 | 59.3 | 75.9 | > 100 | > 100 | 30.8 | –
8 | O=C1CC(Sc2nc3ccc(I)cc3c(=O)n2Cc2ccccc2)C(=O)NN1 (stereo unspecified) | 11.2 | 50.5 | 28.4 | 33.1 | 39.1 | 30.1 | 27.6 | 28.2 | 42.6 | 39.8 | –
9 | N#CCCN(CCC#N)c1ccc(/C=C2\SC(=S)NC2=O)cc1Br | > 100 | > 100 | > 100 | > 100 | 56.3 | > 100 | > 100 | > 100 | > 100 | > 100 | –
